From patent US20100120858A1, “Piperidine Derivatives” (Pfizer Inc., priority 2006, published 2010)

Assays:
[1] = molecular target: human serotonin transporter (Homo sapiens, UniProt P31645); assay: Human serotonin (hSERT) receptor binding, [125I]-RTI-55; conditions: membranes of HEK-293 cells transfected with human serotonin transporter cDNA, IC50 converted by Cheng-Prusoff
Experimental: (§1) Cell pastes of HEK-293 cells transfected with a human serotonin transporter cDNA were prepared. The cell pastes were resuspended in 400 to 700 ml of Krebs-HEPES assay buffer (25 mM HEPES, 122 mM NaCl, 3 mM KCl, 1.2 mM MgSO4, 1.3 mM CaCl2, and 11 mM glucose, pH 7.4) with a Polytron homogenizer at Setting 7 for 30 seconds. Aliquots of membranes (˜2.5 mg/mL protein) were stored in liquid nitrogen until used.
Assays were set up in FlashPlates pre-coated with 0.1% polyethyleneimine (PEI) in a total volume of 250 μL containing: test compound (concentration 10^−5M to 10^−12M), cell membranes, and […] [^125I]-RTI-55 (Perkin Elmer, NEX-272; specific activity 2200 Ci/mmol). The reaction was incubated and gently agitated for 90 minutes at room temperature, and terminated by removal of assay volume. Plates were covered, and bound [^125I]-RTI-55 was determined using a Wallac Trilux Beta Plate Counter. Test compounds were run in duplicate, and specific binding was defined as the difference between binding in the presence and absence of 10 μM citalopram.
Excel and GraphPad Prism software were used for data calculation and analysis. IC50 values were converted to Ki values using the Cheng-Prusoff equation.

[2] = molecular target: human norepinephrine transporter (Homo sapiens, UniProt P23975); assay: Human norepinephrine (hNET) receptor binding, [125I]-RTI-55; conditions: membranes of HEK-293 cells transfected with human norepinephrine transporter cDNA; 50 pM [125I]-RTI-55; IC50 converted by Cheng-Prusoff
Chain of human norepinephrine transporter (P23975 whole entry): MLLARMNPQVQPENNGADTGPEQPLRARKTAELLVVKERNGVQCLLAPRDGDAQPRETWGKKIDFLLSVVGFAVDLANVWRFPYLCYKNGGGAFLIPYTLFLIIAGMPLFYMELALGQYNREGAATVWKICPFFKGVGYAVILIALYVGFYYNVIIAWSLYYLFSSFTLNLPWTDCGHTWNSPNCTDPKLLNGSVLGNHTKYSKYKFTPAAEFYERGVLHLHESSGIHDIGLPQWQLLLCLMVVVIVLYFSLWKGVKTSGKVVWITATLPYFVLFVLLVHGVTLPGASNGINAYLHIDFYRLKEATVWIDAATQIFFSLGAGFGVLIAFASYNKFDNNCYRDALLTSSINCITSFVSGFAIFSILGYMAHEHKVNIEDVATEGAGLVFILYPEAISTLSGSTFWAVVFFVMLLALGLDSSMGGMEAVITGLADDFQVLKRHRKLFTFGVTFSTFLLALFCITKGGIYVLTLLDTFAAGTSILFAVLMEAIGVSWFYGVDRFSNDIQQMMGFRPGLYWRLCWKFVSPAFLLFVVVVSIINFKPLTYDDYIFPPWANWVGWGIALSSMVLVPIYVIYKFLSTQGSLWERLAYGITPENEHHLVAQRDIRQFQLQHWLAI
Experimental: as §1, with “human embryonic kidney 293 (HEK-293)” for “HEK-293”, “norepinephrine” for “serotonin”, “mL” for “ml”, “Krebs-N-2-hydroxyethylpiperazine-N′-2-ethanesulfonic acid (HEPES)” for “Krebs-HEPES”, “setting” for “Setting”, “(5” for “(˜2.5”
The binding assay was set up in Beckman deep-well polypropylene plates with a total volume of 250 μL containing: test compound (concentration of 10^−5M to 10^−12M), cell membranes, and 50 pM [^125I]-RTI-55 ([^125I]-3 beta-(4-iodophenyl)tropan-2 beta-carboxylic acid methyl ester) (Perkin Elmer, NEX-272; specific activity 2200 Ci/mmol). The reaction was incubated by gentle agitation for 90 minutes at room temperature and was terminated by filtration through Whatman GF/C filter plates using a Brandel 96-well plate harvester. Scintillation fluid (100 μL) was added to each well, and bound [^125I]-RTI-55 was determined using a Wallac Trilux Beta Plate Counter. Test compounds were run in duplicate, and specific binding was defined as the difference between binding in the presence and absence of 10 μM desipramine.
Excel and GraphPad Prism software were used for data calculation and analysis. IC50 values were converted to Ki values using the Cheng-Prusoff equation. The Ki values (nM) for the hNET are reported below in Table 13.

Chain of human serotonin transporter (P31645 whole entry): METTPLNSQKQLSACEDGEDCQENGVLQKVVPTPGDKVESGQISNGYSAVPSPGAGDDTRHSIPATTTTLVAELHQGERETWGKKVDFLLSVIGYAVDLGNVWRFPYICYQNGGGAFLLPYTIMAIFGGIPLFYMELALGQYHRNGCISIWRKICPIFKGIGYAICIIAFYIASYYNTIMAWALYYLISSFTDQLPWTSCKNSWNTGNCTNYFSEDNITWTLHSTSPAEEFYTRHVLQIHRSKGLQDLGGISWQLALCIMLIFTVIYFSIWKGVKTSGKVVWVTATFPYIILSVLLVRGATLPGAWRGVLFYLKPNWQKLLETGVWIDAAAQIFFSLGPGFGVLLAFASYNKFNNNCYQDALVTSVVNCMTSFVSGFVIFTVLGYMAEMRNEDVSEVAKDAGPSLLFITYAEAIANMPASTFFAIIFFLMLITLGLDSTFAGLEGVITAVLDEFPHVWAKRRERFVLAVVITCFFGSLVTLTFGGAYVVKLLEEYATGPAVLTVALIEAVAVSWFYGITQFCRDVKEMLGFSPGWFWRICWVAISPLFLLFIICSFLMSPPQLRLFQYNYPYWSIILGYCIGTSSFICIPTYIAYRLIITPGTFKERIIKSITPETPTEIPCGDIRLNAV

| SMILES | Ki [1] | Ki [2] |
| --- | --- | --- |
| CCOc1ccccc1OC(c1ccccc1)[C@H]1CCCNC1 (mixture of isomers) [Example 106, (S)-3-[(2-ethoxy-phenoxy)-(R,S)-phenyl-methyl]-piperidine fumaric acid] | 430 nM | 7 nM |
| Fc1ccc(Oc2ncccc2OC(c2ccccc2)C2CCCNC2)cc1 (single isomer, unassigned; stereoisomer a) [Example 88, 2-(4-fluoro-phenoxy)-3-[((R or S)-phenyl)-((S)-piperidin-3-yl)-methoxy]-pyridine fumaric acid, stereoisomer A] | 150 nM | 4 nM |
| CCOc1ncccc1OC(c1ccccc1)C1CCCNC1 (single isomer, unassigned; stereoisomer a) [Example 90, 2-ethoxy-3-[((R or S)-phenyl)-((S)-piperidin-3-yl)-methoxy]-pyridine fumaric acid, stereoisomer A] | 71 nM | 2 nM |
| CC(C)COc1ncccc1OC(c1ccccc1)[C@H]1CCCNC1 (single isomer, unassigned; stereoisomer a) [Example 92, 2-isobutoxy-3-[((R or S)-phenyl)-((S)-piperidin-3-yl)-methoxy]-pyridine fumaric acid, stereoisomer A] | 140 nM | 29 nM |
| Fc1ccc(Oc2ncccc2OC(c2ccccc2)C2CCCNC2)cc1 (single isomer, unassigned; stereoisomer b) [Example 89, 2-(4-fluoro-phenoxy)-3-[((R or S)-phenyl)-((S)-piperidin-3-yl)-methoxy]-pyridine fumaric acid, stereoisomer B] | 590 nM | 43 nM |
| CCOc1ncccc1OC(c1ccccc1)C1CCCNC1 (single isomer, unassigned; stereoisomer b) [Example 91, 2-ethoxy-3-[((R or S)-phenyl)-((S)-piperidin-3-yl)-methoxy]-pyridine fumaric acid, stereoisomer B] | 430 nM | 99 nM |
| Cc1ccc(OC[C@H]2CCCNC2)c(Oc2ccc(F)cc2C)n1 [Example 1, (S)-2-(4-fluoro-2-methyl-phenoxy)-6-methyl-3-(piperidin-3-ylmethoxy)-pyridine fumaric acid] | 580 nM | 28 nM |
| Cc1ccc(OC[C@H]2CCCNC2)c(Oc2c(C)cccc2C)n1 [Example 2, (S)-2-(2,6-dimethyl-phenoxy)-6-methyl-3-(piperidin-3-ylmethoxy)-pyridine fumaric acid] | ≥ 10000 nM | 17 nM |
| COc1ccccc1Oc1nc(C)ccc1OC[C@H]1CCCNC1 [Example 3, (S)-2-(2-methoxy-phenoxy)-6-methyl-3-(piperidin-3-ylmethoxy)-pyridine fumaric acid] | 1200 nM | 2.2 nM |
| Cc1ccc(OC[C@H]2CCCNC2)c(Oc2ccccc2C)n1 [Example 5, (S)-2-(2-methyl-phenoxy)-6-methyl-3-(piperidin-3-ylmethoxy)-pyridine fumaric acid] | 2800 nM | 8.4 nM |
| Cc1ccc(OC[C@H]2CCCNC2)c(Oc2ccccc2Cl)n1 [Example 7, (S)-2-(2-chloro-phenoxy)-6-methyl-3-(piperidin-3-ylmethoxy)-pyridine fumaric acid] | 350 nM | 2.7 nM |
| COc1cccc(Oc2nc(C)ccc2OC[C@H]2CCCNC2)c1OC [Example 9, (S)-2-(2,3-dimethoxy-phenoxy)-6-methyl-3-(piperidin-3-ylmethoxy)-pyridine fumaric acid] | ≥ 10000 nM | 3200 nM |
| Cc1ccc(OC[C@H]2CCCNC2)c(Oc2ccccc2OC(C)C)n1 [Example 10, (S)-2-[2-(1-methyl-ethoxy)-phenoxy]-6-methyl-3-(piperidin-3-ylmethoxy)-pyridine fumaric acid] | 2600 nM | 10.1 nM |
| Cc1ccc(OC[C@H]2CCCNC2)c(Oc2ccc(Cl)cc2)n1 [Example 13, (S)-2-(4-chloro-phenoxy)-6-methyl-3-(piperidin-3-ylmethoxy)-pyridine fumaric acid] | 140 nM | 8.9 nM |
| Cc1ccc(OC[C@H]2CCCNC2)c(Oc2cccc(Cl)c2)n1 [Example 15, (S)-2-(3-chloro-phenoxy)-6-methyl-3-(piperidin-3-ylmethoxy)-pyridine fumaric acid] | 287 nM | 9.8 nM |
| Cc1ccc(OC[C@H]2CCCNC2)c(Oc2cc(C)c(Cl)cc2C(C)C)n1 [Example 16, (S)-2-[4-chloro-5-methyl-2-(1-methyl-ethyl)-phenoxy]-6-methyl-3-(piperidin-3-ylmethoxy)-pyridine fumaric acid] | 1700 nM | 2600 nM |
| Cc1ccc(OC[C@H]2CCCNC2)c(Oc2ccc(Cl)c(Cl)c2)n1 [Example 17, (S)-2-(3,4-dichloro-phenoxy)-6-methyl-3-(piperidin-3-ylmethoxy)-pyridine fumaric acid] | 63 nM | 12 nM |
| Cc1ccc(OC[C@H]2CCCNC2)c(Oc2ccc3c(c2)CCC3)n1 [Example 18, (S)-2-(2,3-dihydro-1H-inden-5-yloxy)-6-methyl-3-(piperidin-3-ylmethoxy)pyridine fumaric acid] | 620 nM | 54 nM |
| Cc1ccc(OC[C@H]2CCCNC2)c(Oc2cccc3c2CCCC3)n1 [Example 19, (S)-6-methyl-3-(piperidin-3-ylmethoxy)-2-(5,6,7,8-tetrahydronaphthalen-1-yloxy)-pyridine fumaric acid] | 1900 nM | 86 nM |
| Cc1ccc(OC[C@H]2CCCNC2)c(Oc2ccc(C(C)C)cc2)n1 [Example 20, (S)-2-[4-(1-methyl-ethyl)-phenoxy]-6-methyl-3-(piperidin-3-ylmethoxy)-pyridine fumaric acid] | 2400 nM | 4800 nM |
| COc1cccc(F)c1Oc1nc(C)ccc1OC[C@H]1CCCNC1 [Example 21, (S)-2-(2-fluoro-6-methoxy-phenoxy)-6-methyl-3-(piperidin-3-ylmethoxy)-pyridine fumaric acid] | 72 nM | 4.9 nM |
| Cc1ccc(OC[C@H]2CCCNC2)c(Oc2ccc(Cl)cc2Cl)n1 [Example 22, (S)-2-(2,4-dichloro-phenoxy)-6-methyl-3-(piperidin-3-ylmethoxy)-pyridine fumaric acid] | 79 nM | 4.7 nM |
| Cc1ccc(OC[C@H]2CCCNC2)c(Oc2ccc(F)cc2Cl)n1 [Example 24, (S)-2-(2-chloro-4-fluoro-phenoxy)-6-methyl-3-(piperidin-3-ylmethoxy)-pyridine fumaric acid] | 160 nM | 2.7 nM |
| COc1ccc(Oc2nc(C)ccc2OC[C@H]2CCCNC2)c(Cl)c1 [Example 26, (S)-2-(2-chloro-4-methoxy-phenoxy)-6-methyl-3-(piperidin-3-ylmethoxy)-pyridine fumaric acid] | 860 nM | 18 nM |
| Cc1ccc(OC[C@H]2CCCNC2)c(Oc2cccc(C(F)(F)F)c2)n1 [Example 27, (S)-6-methyl-2-(3-trifluoromethy-phenoxy)-3-(piperidin-3-ylmethoxy)-pyridine fumaric acid] | 560 nM | 310 nM |
| COc1cc(F)ccc1Oc1nc(C)ccc1OC[C@H]1CCCNC1 [Example 28, (S)-2-(4-fluoro-2-methoxy-phenoxy)-6-methyl-3-(piperidin-3-ylmethoxy)-pyridine fumaric acid] | 300 nM | 6.1 nM |
| COc1ccc(Oc2nc(C)ccc2OC[C@H]2CCCNC2)c(F)c1 [Example 30, (S)-2-(2-fluoro-4-methoxy-phenoxy)-6-methyl-3-(piperidin-3-ylmethoxy)-pyridine fumaric acid] | 230 nM | 15 nM |
| Cc1ccc(OC[C@H]2CCCNC2)c(Oc2ccc(Cl)c(F)c2)n1 [Example 31, (S)-2-(4-chloro-3-fluoro-phenoxy)-6-methyl-3-(piperidin-3-ylmethoxy)-pyridine fumaric acid] | 101 nM | 8.4 nM |
| CC(C)COc1cccc(F)c1OC[C@H]1CCCNC1 [Example 104, (S)-3-(2-fluoro-6-isobutoxy-phenoxymethyl)-piperidine fumaric acid] |  | 26 nM |
